Test system: M. tuberculosis H37Rv growth inhibition
Test: M. tuberculosis H37Rv growth inhibitors, H37Rv strain (AID 1626)
Settings: for IC90: measured here: IC90 against H37Rv; for CC50: measured here: Vero cell cytotoxicity

| SMILES | IC50 [µM] | IC90 [µM] | CC50 [µM] |
| --- | --- | --- | --- |
| CCOc1cc(CNC(C)(C)CO)cc(Br)c1OCc1ccc(Cl)cc1Cl | 11.4 | 12.3 | 12.7 |
| COc1ccc(NCC(=O)Nc2ccc(Cl)cc2C)c(OC)c1 | 27.4 | > 100 | – |
| CCCc1cc(-c2nc(-c3ccc(Br)cc3)cs2)ccn1 | 5.68 | 10.4 | – |
| CCCCCCCCn1cnc2c(N)c(C)c(C)cc21 | 15.9 | 21.4 | – |
| CCN(CC)CCN1c2ccccc2Sc2ccc3ccccc3c21 | 10.4 | 18.9 | > 40 |
| CC(=O)C1=C(C)NC(SCC(=O)c2ccc(Cl)c(Cl)c2)=C(C#N)C1c1ccco1 (stereo not given) | 5.85 | 6.67 | > 40 |
| Nc1cccc(-c2cc3ccccc3oc2=O)c1 | 29.4 | > 100 | – |
| CCOC(=O)c1sc(NC(=O)CSc2ncn[nH]2)c(C#N)c1C | – | – | > 40 |
| COc1ccc(/C=C2\COc3ccccc3C2=O)cc1OC | 9.44 | 14.6 | 29.2 |
| CCOC(=O)c1c(NC(=O)C2COc3ccccc3O2)sc2c1CC(C)(C)NC2(C)C (stereo not given) | 12.6 | 13.7 | – |
| Cc1nc2ccccn2c1C(=O)NCc1ccc2c(c1)OCO2 | 1.62 | 7.83 | – |
| CCOc1ccc(N2C(=O)c3ccccc3C2=O)cc1 | – | > 100 | – |
| COC(=O)c1cccc(OC(N)=O)c1 | 72.9 | > 100 | – |
| COCCCNC(=O)COC(=O)c1ccc(-c2nc3ccccc3s2)s1 | 14.4 | 26.9 | > 40 |
| O=C(COc1ccc(Nc2ccccc2)cc1)OCC(=O)N1CCCCC1 | 19.5 | > 100 | – |
| CSc1ccc(/C=C/C(=O)c2ccc(O)cc2)cc1 | 9.87 | 13.7 | 30.7 |
| O=C(Nc1ccc(CSc2ccccc2)cc1)c1ccc(CN2CCOCC2)cc1 | 32.2 | > 100 | > 40 |
| O=[N+]([O-])c1cccnc1N1CCC(c2cc(-c3cccc(C(F)(F)F)c3)n[nH]2)CC1 | 6.34 | 11 | > 40 |
| CCc1sc(N)nc1-c1ccccc1 | – | > 100 | – |
| O=C(/C=C/c1cccc(Cl)c1)c1nc2ccccc2[nH]1 | 2.94 | 3.34 | 15.3 |
| COc1ccc2cc(C(=O)C3CCCN(Cc4cnc(C)s4)C3)ccc2c1 (stereo not given) | 13.6 | > 100 | – |

| SMILES | IC50 [µM] | IC90 [µM] | CC50 [µM] |
| --- | --- | --- | --- |
| COc1ccc(/C=C2\SC(=N)N(c3nccs3)C2=O)cc1OC | < 0.195 | > 100 | 17.9 |
| COC(=O)COc1cccc(NC(=O)COc2ccccc2)c1 | 2.72 | 4 | – |
| COc1ccccc1Sc1nc(-c2ccccn2)ncc1OC | 1.04 | > 100 | 7.61 |
| O=C1c2cccc3c([N+](=O)[O-])ccc(c23)C(=O)N1Cc1cccnc1 | 2.02 | 3.69 | 6.25 |
| N#C/C(=C\c1c[nH]c2ccccc12)C(=O)Nc1ncc(Cc2ccc(Cl)cc2Cl)s1 | 11.7 | 13.5 | > 40 |
| COc1ccc(N=CC2=C(O)CCCC2=O)cc1 | 45 | > 100 | – |
| COc1cccc(OCCNC(=O)c2cc([N+](=O)[O-])cc([N+](=O)[O-])c2)c1 | < 0.195 | 0.747 | – |
| Cc1ccc(-c2nnc(SCC#CCOC(=O)c3ccco3)o2)cc1 | < 0.391 | 3.43 | – |
| O=[N+]([O-])c1ccc(Sc2nc3ccccc3o2)c([N+](=O)[O-])c1 | 3.69 | 5.16 | 8.69 |
| O=C(c1cc2c(F)cccc2s1)N1CCCC1 | 7.87 | > 100 | – |
| Brc1c(-c2ccc3c(c2)OCO3)nc2ncccn12 | 2.23 | 7.15 | > 40 |
| COc1ccc(NS(=O)(=O)c2ccc3nc(COc4cccc5ccccc45)[nH]c3c2)cc1 | 9.84 | 15 | 29.6 |
| Nc1ccc(OCc2ccco2)cc1 | 5.19 | > 100 | – |
| COC(=O)c1ccccc1Sc1ncnc2onc(C)c12 | 15.3 | 30.7 | > 40 |
| CN(C)c1ccc(N=Nc2nc3ccccc3n2C)cc1 | 0.939 | 2.73 | > 40 |
| CCOC(=O)c1ccc(N2CSC3=C(C#N)C(c4ccc(OC)cc4OC)CC(=O)N3C2)cc1 (stereo not given) | 41.8 | > 100 | – |
| CCC(/C=C1\Sc2ccc(OC)cc2N1CCO)=C\c1sc2ccc(OC)cc2[n+]1CCO | 7.29 | 10.2 | – |
| Cc1[nH]n(-c2ccccc2)c(=S)c1C=NCCCN=Cc1c(C)[nH]n(-c2ccccc2)c1=S | < 0.391 | > 100 | – |
| O=C(/C=C/c1cccc([N+](=O)[O-])c1)c1cccs1 | 11.1 | 12.8 | – |
| CC(=O)n1cc(N(C(=O)CCl)c2ccc(Cl)cc2)c2ccccc21 | 8.88 | 19.6 | 0.662 |
| Cc1cccc(-c2cc3nc(C)c(C)c(NCCCn4ccnc4)n3n2)c1 | 4.54 | 8.03 | > 40 |

| SMILES | IC50 [µM] | IC90 [µM] | CC50 [µM] |
| --- | --- | --- | --- |
| CCOC(=O)C(Cc1ccccc1)C(=O)Nc1cccc2ccccc12 (stereo not given) | 4 | 12.7 | – |
| Nc1nc(-c2ccccn2)nc(N)c1Cc1c(F)cccc1Cl | < 0.391 | 0.451 | 4.76 |
| CCOC(=O)/C=C/C(=O)Nc1ccc(Oc2ccccc2)cc1 | 1.2 | > 100 | > 40 |
| O=C(COC(=O)c1ccc(Cl)s1)c1ccc[nH]1 | 8.14 | 16.7 | – |
| CCOc1ccc(NC(C)c2cc(Cl)ccc2O)cc1 (stereo not given) | 10.5 | > 100 | – |
| Cc1ccc(NCCC(=O)c2cccs2)cc1Cl | 34.6 | > 100 | – |
| C(=C\c1nc(N2CCCC2)c2ccccc2n1)/c1ccccc1 | 5.33 | 7.91 | > 40 |
| Cc1nn(-c2ccccc2)c(C)c1C(=O)Nc1nnc(-c2ccco2)o1 | 13.5 | > 100 | 38.5 |
| O=C(Nc1ccc(N2CCCCC2)c(Cl)c1)c1ccc(N2CCOCC2)c([N+](=O)[O-])c1 | 40.2 | > 100 | 30 |
| Cc1ccc(NC(=O)c2sc3nc(C)nc(N4CCN(c5ccccn5)CC4)c3c2C)c(C)c1 | 10.7 | > 100 | – |
| COc1ccc(CCNc2cc(C)nc3c(-c4ccccc4)c(C)nn23)cc1OC | 3.56 | 8.82 | – |
| COc1cc(OC)cc(C(=O)Nc2nc3ccccc3[nH]2)c1 | 15.9 | > 100 | > 40 |
| Nc1ccc(-c2cc(-c3cccc(N)c3)nc(-c3ccccc3)n2)cc1 | – | – | > 40 |
| COc1ccccc1C(=O)OCC(=O)Nc1ccc(Cl)cn1 | 22.6 | > 100 | > 40 |
| Cn1nc(C(F)(F)F)c(-c2ccc(Br)cc2)c1NC(=O)c1cccnc1 | – | > 100 | > 40 |
| CCN1CCN(c2cc(C(C)(C)C)nc3c(-c4ccccc4)c(C)nn23)CC1 | 3.6 | 5.63 | 30.6 |
| CCCCCCCCOC(=O)c1c(CSC(=N)N)n(C)c2cc(Br)c(OC(C)=O)cc12 | 11.4 | 15 | – |
| CCCCCc1cc(=O)oc2c(C(CCN(CC)CC)c3ccc(OC)cc3)c(OC)cc(OC)c12 (stereo not given) | 9.08 | 11.7 | 13 |
| Cc1ccc(C(=O)Oc2oc(-c3ccccc3)nc2C=Nc2ccc(N(C)C)cc2)cc1 | – | – | > 40 |
| O=C(CSCc1ccc(Cl)cc1)Nc1ccc(-c2nnc(-c3ccccc3)o2)cc1 | – | – | 6.18 |
| Cc1cc(NC(=O)CSc2nnc(-c3ccc4c(c3)OCCO4)o2)no1 | 1.49 | 2.53 | > 40 |

| SMILES | IC50 [µM] | IC90 [µM] | CC50 [µM] |
| --- | --- | --- | --- |
| C/C(=C\C(=S)Nc1ccccc1)Nc1ccc2ccccc2c1 | 4.39 | 48.9 | > 40 |
| Cn1ccnc1C(O)c1cc(C(C)(C)C)c(O)c(C(C)(C)C)c1 (stereo not given) | 10.3 | 13.8 | – |
| CCOc1ccc(Nc2nc(N)nc(CCl)n2)cc1 | 23.2 | > 100 | 0.194 |
| CCN(Cc1ccccc1)c1ccc(/C=N/N=C(N)N)cc1 | 5.5 | 6.21 | 8.71 |
| CC(=O)OCCCNc1cc(Sc2nc3ccccc3s2)c2nonc2c1[N+](=O)[O-] | 7.74 | 10.1 | 16.3 |
| Cn1cnc([N+](=O)[O-])c1S(=O)(=O)c1ccc(Cl)cc1 | 8.35 | 10.7 | 23.4 |
| Cc1cc(OCc2nnc(SCC(=O)OC3CCCCC3)o2)ccc1Cl | 0.372 | 2.57 | – |
| COc1ccc(C2=CC(c3c(C)nn(-c4ccccc4)c3Cl)n3nnnc3N2)cc1OC (stereo not given) | 8.88 | 14.1 | – |
| Cc1coc2c1C(=O)C(=O)c1c-2ccc2c1CCCC2(C)C | 3.23 | 4.85 | – |
| CCCCc1ccc(NC(=O)CC(C)C)cc1 | 6.02 | > 100 | – |
| O=C(Nc1ncc(Cc2ccc(C(F)(F)F)cc2)s1)c1ccc(-c2cccc([N+](=O)[O-])c2)o1 | 60.2 | > 100 | > 40 |
| c1ccc(-c2cc(-c3ccncc3)nc3ccc4ccccc4c23)cc1 | – | – | > 40 |
| O=C(Nc1ccc(-n2nncc2-c2ccco2)cc1)c1cc2ccccc2oc1=O | 1.96 | 6.68 | 19.7 |
| Cn1c(-c2ccc3c(c2)OCO3)cnc1NCc1cccc(Cl)c1 | 11.4 | 13.1 | > 40 |
| Cc1cc(C)n2c(SCc3ccc(Br)cc3)nnc2n1 | – | – | > 40 |
| CC(C)C1N=C(c2ccc3c(c2)OCO3)CC(c2ccccc2O)N1 (stereo not given) | 10.6 | 14.3 | 26.8 |
| COC(=O)CSc1nc2c(c(-c3ccco3)c1C#N)CCCC2 | 3.08 | 3.39 | – |
| CCCC(=O)OCCNc1cc(Sc2nccn2C)c2nonc2c1[N+](=O)[O-] | 17.9 | 31.6 | 19.2 |
| Cc1cccc(OCc2nnc(SCC(=O)OC3CCCCC3)o2)c1 | 1.25 | 5.46 | – |
| CCCCOC(=O)c1ccc(NC(=O)C(=O)NCCN(CC)CC)cc1 | 35.7 | > 100 | – |
| CCn1cc(CNC(=O)c2cc([N+](=O)[O-])c(C)c([N+](=O)[O-])c2)cn1 | 0.547 | 0.874 | – |
